What follows are molecules tested on XBP-1 splicing in ARPE-19 cells or apoptosis of INS-1 cells expressing mIRE-1 (assay: Cellular assay (XBP1 splicing assay or apoptosis assay)). Details: data are for the XBP1 splicing assay or the apoptosis assay (not specified per compound).
Format: cell-based
Description: ARPE-19 cells stably expressing XBP-1 (a.a. 1-376) with nano-luciferase gene sequence linked so it is in frame when XBP-1 is spliced, were cultured in F12 media, 10% FBS, 0.044% sodium bicarbonate, 150 μg/ml hygromycin B and seeded for assays at 5,000 cells in 384 well plates in culture media without hygromycin B and incubated at 37° C./5% CO2. […] After further incubation of 30 minutes thapsigargin was added (final concentration 150 nM) and then another 4 hour incubation. A NanoLuc luciferase assay (Promega) was used according to the manufacturer's instructions to detect the luciferase and luminescence measured on a luminometer (EnVision, PerkinElmer).
Doxycycline (final concentration 100 nM) was added and plates incubated for a further 72 hours. To determine the proportion of apoptotic cells Hoechst 33342 (final concentration 10 μg/mL) was added, then after 30 minutes incubation cells imaged and analyzed on an InCell high content imager.

Point of comparison: `CNC1CC=C(c2cnc(N)c3c(-c4ccc(NC(=O)Nc5ccc(OC)c(OC)c5)c5ccccc45)nc(C(C)C)n23)CC1` (centres unmarked) [Example 143, 1-(4-(8-amino-3-isopropyl-5-(4-(methylamino)cyclohex-1-en-1-yl)imidazo[1,5-a]pyrazin-1-yl)naphthalen-1-yl)-3-(3,4-dimethoxyphenyl)urea], IC50 210 nM. Against it:
- CNC1CC=C(c2cnc(N)c3c(-c4ccc(NC(=O)Nc5ccncc5)c5ccccc45)nc(C(C)C)n23)CC1 (centres unmarked) [Example 144, 1-(4-(8-amino-3-isopropyl-5-(4-(methylamino)cyclohex-1-en-1-yl)imidazo[1,5-a]pyrazin-1-yl)naphthalen-1-yl)-3-(pyridin-4-yl)urea] — 2.3-fold higher, 490 nM
- CNC1CC=C(c2cnc(N)c3c(-c4ccc(NC(=O)Nc5ccc(F)cc5)c5ccccc45)nc(C(C)C)n23)CC1 (centres unmarked) [Example 145, 1-(4-(8-amino-3-isopropyl-5-(4-(methylamino)cyclohex-1-en-1-yl)imidazo[1,5-a]pyrazin-1-yl)naphthalen-1-yl)-3-(4-fluorophenyl)urea] — 2.8-fold lower, 74 nM
- CNC1CC=C(c2cnc(N)c3c(-c4ccc(NC(=O)Nc5cc(F)cc(OC)c5)cc4F)nc(C(C)C)n23)CC1 (centres unmarked) [Example 146, 1-(4-(8-amino-3-isopropyl-5-(4-(methylamino)cyclohex-1-en-1-yl)imidazo[1,5-a]pyrazin-1-yl)-3-fluorophenyl)-3-(3-fluoro-5-methoxyphenyl)urea] — within 1.5-fold, 240 nM
- CNC1CC=C(c2cnc(N)c3c(-c4ccc(NC(=O)Nc5cccnc5)c5ccccc45)nc(C)n23)CC1 (centres unmarked) [Example 147, 1-(4-(8-amino-3-methyl-5-(4-(methylamino)cyclohex-1-en-1-yl)imidazo[1,5-a]pyrazin-1-yl)naphthalen-1-yl)-3-(pyridin-3-yl)urea] — 15-fold higher, 3100 nM
- CNC1CC=C(c2cnc(N)c3c(-c4ccc(NC(=O)Nc5cncc(OC)c5)cc4F)nc(C(C)C)n23)CC1 (centres unmarked) [Example 148, 1-(4-(8-amino-3-isopropyl-5-(4-(methylamino)cyclohex-1-en-1-yl)imidazo[1,5-a]pyrazin-1-yl)-3-fluorophenyl)-3-(5-methoxypyridin-3-yl)urea] — 6.2-fold higher, 1300 nM
- CNC1CC=C(c2cnc(N)c3c(-c4ccc(NC(=O)Nc5cncc(F)c5)cc4F)nc(C(C)C)n23)CC1 (centres unmarked) [Example 149, 1-(4-(8-amino-3-isopropyl-5-(4-(methylamino)cyclohex-1-en-1-yl)imidazo[1,5-a]pyrazin-1-yl)-3-fluorophenyl)-3-(5-fluoropyridin-3-yl)urea] — 3.7-fold higher, 780 nM
- CNC1CC=C(c2cnc(N)c3c(-c4ccc(NC(=O)Nc5ccsc5)c5ccccc45)nc(C(C)C)n23)CC1 (centres unmarked) [Example 150, 1-(4-(8-amino-3-isopropyl-5-(4-(methylamino)cyclohex-1-en-1-yl)imidazo[1,5-a]pyrazin-1-yl)naphthalen-1-yl)-3-(thiophen-3-yl)urea] — 2.3-fold lower, 90 nM
- CNC1CC=C(c2cnc(N)c3c(-c4ccc(NC(=O)Nc5cc(F)cc(F)c5)c5ccccc45)nc(C(C)C)n23)CC1 (centres unmarked) [Example 151, 1-(4-(8-amino-3-isopropyl-5-(4-(methylamino)cyclohex-1-en-1-yl)imidazo[1,5-a]pyrazin-1-yl)naphthalen-1-yl)-3-(3,5-difluorophenyl)urea] — 3.5-fold lower, 60 nM
- CNC1CC=C(c2cnc(N)c3c(-c4ccc(NC(=O)Nc5ccccc5F)c5ccccc45)nc(C(C)C)n23)CC1 (centres unmarked) [Example 152, 1-(4-(8-amino-3-isopropyl-5-(4-(methylamino)cyclohex-1-en-1-yl)imidazo[1,5-a]pyrazin-1-yl)naphthalen-1-yl)-3-(2-fluorophenyl)urea] — 2.1-fold lower, 100 nM
- CNC1CC=C(c2cncc3c(-c4ccc(NC(=O)Nc5ccccc5)c5ccccc45)nc(C(C)C)n23)CC1 (centres unmarked) [Example 155, 1-(4-(3-isopropyl-5-(4-(methylamino)cyclohex-1-en-1-yl)imidazo[1,5-a]pyrazin-1-yl)naphthalen-1-yl)-3-phenylurea] — 3-fold higher, 640 nM
- CNC1CC=C(c2cnc(N)c3c(-c4ccc(Cc5nc6cccc(C)c6[nH]5)c5ccccc45)nc(C(C)C)n23)CC1 (centres unmarked) [Example 156, 3-Isopropyl-1-(4-((7-methyl-1H-benzo[d]imidazol-2-yl)methyl)naphthalen-1-yl)-5-(4-(methylamino)cyclohex-1-en-1-yl)imidazo[1,5-a]pyrazin-8-amine] — 13-fold lower, 16 nM
- CNC1CC=C(c2cnc(N)c3c(-c4ccc(Cc5ncc(-c6ccccc6)[nH]5)c5ccccc45)nc(C(C)C)n23)CC1 (centres unmarked) [Example 168, 3-Isopropyl-5-(4-(methylamino)cyclohex-1-en-1-yl)-1-(4-((5-phenyl-1H-imidazol-2-yl)methyl)naphthalen-1-yl)imidazo[1,5-a]pyrazin-8-amine] — 2.2-fold lower, 96 nM
- CNC1CC=C(c2cnc(N)c3c(-c4ccc(NS(=O)(=O)Cc5ccccc5Cl)c(F)c4)nc(C(C)C)n23)CC1 (centres unmarked) [Example 169, N-(4-(8-Amino-3-isopropyl-5-(4-(methylamino)cyclohex-1-en-1-yl)imidazo[1,5-a]pyrazin-1-yl)-2-fluorophenyl)-1-(2-chlorophenyl)methanesulfonamide] — 6.8-fold lower, 31 nM
- CNC1CC=C(c2cnc(N)c3c(-c4ccc(NS(=O)(=O)c5cc(C)ccc5F)c5ccccc45)nc(C(C)C)n23)CC1 (centres unmarked) [Example 185, N-(4-(8-amino-3-isopropyl-5-(4-(methylamino)cyclohex-1-en-1-yl)imidazo[1,5-a]pyrazin-1-yl)naphthalen-1-yl)-2-fluoro-5-methylbenzenesulfonamide] — the same, 210 nM
- CNC1CC=C(c2cnc(N)c3c(-c4ccc(NS(=O)(=O)c5cc(Cl)ccc5Cl)cc4F)nc(C(C)C)n23)CC1 (centres unmarked) [Example 195, N-(4-(8-amino-3-isopropyl-5-(4-(methylamino)cyclohex-1-en-1-yl)imidazo[1,5-a]pyrazin-1-yl)-3-fluorophenyl)-2,5-dichlorobenzenesulfonamide] — 3.2-fold lower, 66 nM
- CNC1CC=C(c2cnc(N)c3c(-c4ccc(NS(=O)(=O)c5cc(C)ccc5F)c(F)c4)nc(C(C)C)n23)CC1 (centres unmarked) [Example 218, N-(4-{8-amino-5-[4-(methylamino)cyclohex-1-en-1-yl]-3-(propan-2-yl)imidazo[1,5-a]pyrazin-1-yl}-2-fluorophenyl)-2-fluoro-5-methylbenzene-1-sulfonamide] — 8.4-fold lower, 25 nM
- CNC1CC=C(c2cnc(N)c3c(-c4ccc(NS(=O)(=O)c5cc(C)ccc5Cl)c5ccccc45)nc(C(C)C)n23)CC1 (centres unmarked) [Example 219, N-(4-{8-amino-5-[4-(methylamino)cyclohex-1-en-1-yl]-3-(propan-2-yl)imidazo[1,5-a]pyrazin-1-yl}naphthalen-1-yl)-2-chloro-5-methylbenzene-1-sulfonamide] — 10-fold lower, 20 nM
- CC(C)c1nc(-c2ccc(NS(=O)(=O)Cc3ccccc3Cl)c(F)c2)c2c(N)ncc(C3=CCC(NCCF)CC3)n12 (centres unmarked) [Example 220, N-(4-(8-amino-5-(4-((2-fluoroethyl)amino)cyclohex-1-en-1-yl)-3-isopropylimidazo[1,5-a]pyrazin-1-yl)-2-fluorophenyl)-1-(2-chlorophenyl) methanesulfonamide] — 4.2-fold lower, 50 nM
- CC(C)c1nc(-c2ccc(NS(=O)(=O)Cc3ccccc3Cl)c(F)c2)c2c(N)ncc(C3=CCC(O)CC3)n12 (centres unmarked) [Example 224, N-(4-(8-amino-5-(4-hydroxycyclohex-1-en-1-yl)-3-isopropylimidazo[1,5-a]pyrazin-1-yl)-2-fluorophenyl)-1-(2-chlorophenyl)methanesulfonamide] — 5-fold lower, 42 nM
- CC(C)c1nc(-c2ccc(NS(=O)(=O)c3ccccc3Cl)c(F)c2)c2c(N)ncc(C3=CCC(O)CC3)n12 (centres unmarked) [Example 225, N-(4-(8-amino-5-(4-hydroxycyclohex-1-en-1-yl)-3-isopropylimidazo[1,5-a]pyrazin-1-yl)-2-fluorophenyl)-2-chlorobenzenesulfonamide] — within 1.5-fold, 250 nM
- CC(C)c1nc(-c2ccc(NS(=O)(=O)c3ccccc3Cl)c(F)c2)c2c(N)ncc(C3=CCC(NCC(F)F)CC3)n12 (centres unmarked) [Example 226, N-(4-(8-amino-5-(4-((2,2-difluoroethyl)amino)cyclohex-1-en-1-yl)-3-isopropylimidazo[1,5-a]pyrazin-1-yl)-2-fluorophenyl)-2-chlorobenzenesulfonamide] — 1.6-fold higher, 330 nM
- CC(C)c1nc(-c2ccc(NS(=O)(=O)Cc3ccccc3Cl)c(F)c2)c2c(N)ncc(C3=CCC(NC4COC4)CC3)n12 (centres unmarked) [Example 227, N-(4-(8-amino-3-isopropyl-5-(4-(oxetan-3-ylamino)cyclohex-1-en-1-yl)imidazo[1,5-a]pyrazin-1-yl)-2-fluorophenyl)-1-(2-chlorophenyl)methanesulfonamide] — 2.4-fold lower, 87 nM
- CC(C)c1nc(-c2ccc(NS(=O)(=O)c3ccccc3Cl)c(F)c2)c2c(N)ncc(C3=CCC(N(C)CCF)CC3)n12 (centres unmarked) [Example 230, N-(4-(8-amino-5-(4-((2-fluoroethyl)(methyl)amino)cyclohex-1-en-1-yl)-3-isopropylimidazo[1,5-a]pyrazin-1-yl)-2-fluorophenyl)-2-chlorobenzenesulfonamide] — 11-fold lower, 19 nM
- Cc1nc(-c2ccc(NS(=O)(=O)c3ccccc3Cl)c(F)c2)c2c(N)ncc(C3=CCC(NCCF)CC3)n12 (centres unmarked) [Example 231, N-(4-(8-amino-5-(4-((2-fluoroethyl)amino)cyclohex-1-en-1-yl)-3-methylimidazo[1,5-a]pyrazin-1-yl)-2-fluorophenyl)-2-chlorobenzenesulfonamide] — 11-fold lower, 19 nM

What follows are molecules tested against IRE1α RNase (Homo sapiens (Human), UniProt O75460) (assay: Biochemical assay, inhibition of RNase activity of IRE1α). Details: not given.
IRE1α RNase, sequence (O75460 468-977): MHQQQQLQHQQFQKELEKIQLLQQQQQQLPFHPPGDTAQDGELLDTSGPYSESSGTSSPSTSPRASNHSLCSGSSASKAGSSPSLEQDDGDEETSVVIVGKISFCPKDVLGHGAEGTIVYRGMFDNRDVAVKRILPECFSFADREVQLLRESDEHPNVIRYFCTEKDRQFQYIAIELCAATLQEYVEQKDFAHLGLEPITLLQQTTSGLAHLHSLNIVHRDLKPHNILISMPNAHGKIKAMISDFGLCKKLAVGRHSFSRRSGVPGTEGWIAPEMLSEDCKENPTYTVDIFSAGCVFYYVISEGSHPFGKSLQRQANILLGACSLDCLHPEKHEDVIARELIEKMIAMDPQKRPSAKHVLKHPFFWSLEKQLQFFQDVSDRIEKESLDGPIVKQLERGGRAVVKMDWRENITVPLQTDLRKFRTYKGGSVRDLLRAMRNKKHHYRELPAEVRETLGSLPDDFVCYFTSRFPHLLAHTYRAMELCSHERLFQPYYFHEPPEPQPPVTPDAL

Work on `CC(C)c1nc(-c2ccc(NS(=O)(=O)c3ccccc3Cl)c(F)c2)c2c(N)ncc(C3=CCC(NCC(F)F)CC3)n12` (centres unmarked) [Example 226, N-(4-(8-amino-5-(4-((2,2-difluoroethyl)amino)cyclohex-1-en-1-yl)-3-isopropylimidazo[1,5-a]pyrazin-1-yl)-2-fluorophenyl)-2-chlorobenzenesulfonamide] yielded an IC50 of 213 nM.

— US11649237B2, “Substituted imidazo[1,5-a]pyrazines for IRE1 inhibition” (Optikira LLC, priority 2017, dated 2023)
